Data as given in patent US7208517B1, “Endothelin antagonists” (Abbott Labortories, priority 1994, dated 2007).
Read-outs that look alike come from different tables or passages of the source.

How the values were obtained:
[1] = biological target: T1, ETA receptor in MMQ cells (rET-A) (Rattus norvegicus, UniProt P26684); test: ETA/ETB selectivity: (125I)ET-1 competition binding, ETA assay in MMQ cell membranes (rET-A)
T1 construct: endogenous in cells; host or cells: MMQ rat pituitary cells (membranes)
T1 sequence (P26684 21-426): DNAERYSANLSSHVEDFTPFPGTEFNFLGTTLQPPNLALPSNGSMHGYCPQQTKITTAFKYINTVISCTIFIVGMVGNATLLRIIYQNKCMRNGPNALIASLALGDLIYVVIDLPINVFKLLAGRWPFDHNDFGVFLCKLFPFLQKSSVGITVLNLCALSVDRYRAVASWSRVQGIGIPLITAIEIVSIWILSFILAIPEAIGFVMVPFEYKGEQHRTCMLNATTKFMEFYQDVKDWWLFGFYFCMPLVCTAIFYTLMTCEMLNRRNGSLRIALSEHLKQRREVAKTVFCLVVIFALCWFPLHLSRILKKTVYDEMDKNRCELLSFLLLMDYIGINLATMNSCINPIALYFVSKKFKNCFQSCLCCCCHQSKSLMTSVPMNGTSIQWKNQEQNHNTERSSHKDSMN
Experimental: (§1) The mixture was centrifuged at 1000×g for 10 min. The supernatant was collected and centrifuged at 60,000×g for 60 min. The precipitate was resuspended in 20 mM Tris, pH 7.4 containing protease inhibitor and centrifuged again. The final membrane pellet was resuspended in 20 mM Tris, pH 7.4 containing protease inhibitors and stored at −80° C. until used. Protein content was determined by the Bio-Rad dye-binding protein assay.
(§2) Binding assays were performed in 96-well microtiter plates pretreated with 0.1% BSA. […] After incubation, unbound ligands were separated from bound ligands by a vacuum filtration method using glass-fiber filter strips in PHD cell harvesters (Cambridge Technology, Inc., MA), washing the filter strips three times with saline (1 mL). Nonspecific binding was determined in the presence of 1 μM ET-1. IC50 values are calculated using an average of at least two separate determinations.

ETA Receptor = biological target: T2, ETA Receptor (Rattus norvegicus, UniProt P26684); test: [125I]ET-1 binding to membranes from MMQ cells (ETA receptor binding assay, Table 4); details: for inhibition at 1 µM: read-out: % Inhibition of ETA at 1 μM
T2 construct: endogenous in cells; host or cells: MMQ rat pituitary cells (membranes)
T2 sequence (P26684 21-426): T1 sequence (P26684 21-426)

[2] = biological target: T3, ETB receptors of porcine cerebellar tissues (pET-B) (Sus scrofa, UniProt P35463); test: ETA/ETB selectivity: (125I)ET-3 competition binding, ETB assay in porcine cerebellum membranes (pET-B)
T3 construct: porcine cerebellar tissues (known to contain ETB receptors); from tissue; host or cells: porcine cerebellum (membranes)
T3 sequence (P35463 27-443): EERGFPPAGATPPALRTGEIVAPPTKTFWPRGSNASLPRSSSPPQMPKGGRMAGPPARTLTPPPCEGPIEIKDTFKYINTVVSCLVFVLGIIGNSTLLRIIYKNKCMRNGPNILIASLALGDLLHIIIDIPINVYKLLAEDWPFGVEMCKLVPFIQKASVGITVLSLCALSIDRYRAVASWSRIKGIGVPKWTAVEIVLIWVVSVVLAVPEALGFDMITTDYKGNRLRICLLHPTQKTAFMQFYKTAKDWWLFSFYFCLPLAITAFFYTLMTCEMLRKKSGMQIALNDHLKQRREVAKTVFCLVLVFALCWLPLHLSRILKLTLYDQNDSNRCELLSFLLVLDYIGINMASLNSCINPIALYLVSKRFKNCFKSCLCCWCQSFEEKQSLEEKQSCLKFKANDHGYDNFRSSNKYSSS
Experimental: as §1, §2

human ETA receptor = biological target: T4, human ETA receptor (Homo sapiens, UniProt P25101); test: ETA/ETB selectivity: (125I)ET-1 competition binding, CHO cells transfected with human ETA receptor (hET-A)
T4 construct: expressed in transfected cells; host or cells: CHO cells, permanently transfected
T4 sequence (P25101 21-427): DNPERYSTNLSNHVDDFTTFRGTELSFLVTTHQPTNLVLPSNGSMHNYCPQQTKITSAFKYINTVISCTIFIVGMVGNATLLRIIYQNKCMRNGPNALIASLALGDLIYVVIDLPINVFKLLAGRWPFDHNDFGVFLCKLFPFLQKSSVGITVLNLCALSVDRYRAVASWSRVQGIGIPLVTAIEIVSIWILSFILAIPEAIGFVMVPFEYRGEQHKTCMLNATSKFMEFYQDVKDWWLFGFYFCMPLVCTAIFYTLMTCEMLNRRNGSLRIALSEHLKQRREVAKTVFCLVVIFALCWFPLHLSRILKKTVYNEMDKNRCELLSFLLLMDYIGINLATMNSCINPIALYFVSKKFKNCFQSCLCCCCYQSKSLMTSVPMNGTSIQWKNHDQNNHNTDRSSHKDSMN
Experimental: as §1, §2

human ETB receptor = biological target: T5, human ETB receptor (Homo sapiens, UniProt P24530); test: ETA/ETB selectivity: (125I)ET-3 competition binding, CHO cells transfected with human ETB receptor (hET-B); details: CHO cells transfected with human ETB receptor; 0.1 nM (125I)ET-3; read-out: hET-B IC50
T5 construct: expressed in transfected cells; host or cells: CHO cells, permanently transfected
T5 sequence (P24530 27-442): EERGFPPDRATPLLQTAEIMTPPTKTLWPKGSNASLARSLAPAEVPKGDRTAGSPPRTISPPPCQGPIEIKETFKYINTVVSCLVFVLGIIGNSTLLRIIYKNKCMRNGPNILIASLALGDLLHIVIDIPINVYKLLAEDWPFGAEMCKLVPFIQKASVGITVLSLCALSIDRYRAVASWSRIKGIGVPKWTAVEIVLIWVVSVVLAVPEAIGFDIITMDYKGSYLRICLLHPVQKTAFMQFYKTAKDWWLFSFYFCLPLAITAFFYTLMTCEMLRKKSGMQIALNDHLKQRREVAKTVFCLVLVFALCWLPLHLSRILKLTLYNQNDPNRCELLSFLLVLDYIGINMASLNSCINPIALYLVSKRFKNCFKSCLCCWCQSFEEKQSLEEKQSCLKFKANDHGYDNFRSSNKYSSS
Experimental: MMQ cells, porcine cerebellar tissues (known to contain ETB receptors) and chinese hamster ovary cells (CHO) permanently transfected with the human ETA or ETB receptor were homogenized in 25 ml of 10 mM Hepes (pH 7.4) containing 0.25 M sucrose and a protease inhibitor [50 mM EDTA, 0.1 mM PMSF, 5 μg/ml Pepstatin A, and 0.025% Bacitracin] using a micro ultrasonic cell disrupter. The mixture was centrifuged at 1000×g for 10 min. The supernatant was collected and centrifuged at 60,000×g for 60 min. The precipitate was resuspended in 20 mM Tris, pH 7.4 containing protease inhibitor and centrifuged again. The final membrane pellet was resuspended in 20 mM Tris, pH 7.4 containing protease inhibitors and stored at −80° C. until used. Protein content was determined by the Bio-Rad dye-binding protein assay.
Binding assays were performed in 96-well microtiter plates pretreated with 0.1% BSA. Membranes prepared from cells were diluted 100 fold in Buffer B (20 mM Tris, 100 mM NaCl, 10 mM MgCl2, pH 7.4, with 0.2% BSA, 0.1 mM PMSF, 5 μg/mL Pepstatin A, 0.025% bacitracin, and 50 mM EDTA) to a final concentration of 0.2 mg/mL of protein. In competition binding studies, membranes (0.02 mg) were incubated with 0.1 nM of (^125I)ET-1 (for ETA assay in MMQ or CHO cells transfected with human ETA receptor) or (^125I)ET-3 (for ETB assay in porcine cerebellum or CHO cells transfected with human ETB receptor) in Buffer B (final volume: 0.2 mL) in the presence of increasing concentrations of the test compound for 3 hours at 25° C. After incubation, unbound ligands were separated from bound ligands by a vacuum filtration method using glass-fiber filter strips in PHD cell harvesters (Cambridge Technology, Inc., MA), washing the filter strips three times with saline (1 mL). Nonspecific binding was determined in the presence of 1 μM ET-1. IC50 values are calculated using an average of at least two separate determinations.

[3] = MMQ cell membranes, 0.1 nM (125I)ET-1, read-out: rET-A IC50
[4] = test compound at 1 μM, 0.1 nM [125I]ET-1, MMQ cell membranes, 4 hours at 25° C.
[5] = porcine cerebellum membranes, 0.1 nM (125I)ET-3, read-out: pET-B IC50
[6] = CHO cells transfected with human ETA receptor, 0.1 nM (125I)ET-1, read-out: hET-A IC50

| SMILES | IC50 [1, 3] [nM] | inhibition at 1 µM (ETA Receptor; [4]) [%] | IC50 [2, 5] [nM] | IC50 (human ETB receptor) [nM] | other results |
| --- | --- | --- | --- | --- | --- |
| CCCCN(CCC[N+](C)(C)C)C(=O)CN1CC(c2ccc3c(c2)OCO3)C(C(=O)O)C1c1ccc(OC)cc1 (stereo not drawn) [compound 528] | 11 | 98.3 | 43000 | – | – |
| CCCCN(CCCC)C(=O)CN1CC(c2cc(OC)c3c(c2)OCO3)C(C(=O)O)C1CC(C)(C)CCC (stereo not drawn) [compound 514] | 1 | 100 | – | – | IC50 [2]: 26000 nM |
| CCCCN(CCCCN)C(=O)CN1CC(c2ccc3c(c2)OCO3)C(C(=O)O)C1c1ccc(OC)cc1 (stereo not drawn) [compound 529] | 3.6 | 98.1 | 6300 | – | – |
| CCCCN(CCCN)C(=O)CN1CC(c2ccc3c(c2)OCO3)C(C(=O)O)C1c1ccc(OC)cc1 (stereo not drawn) [compound 526] | 42 | 100 | – | 7400 | IC50 (human ETA receptor; [6]): 17 nM |
| CCCCN(CCCN(C)C)C(=O)CN1CC(c2ccc3c(c2)OCO3)C(C(=O)O)C1c1ccc(OC)cc1 (stereo not drawn) [compound 527] | 7.9 | 96.6 | 10000 | – | – |
| CCCCN(CCCC)C(=O)CN1C[C@H](c2cc(OC)c3c(c2)OCO3)[C@@H](C(=O)O)[C@@H]1CC(C)(C)CCC [compound 536] | 0.52 | 100 | – | – | IC50 [2]: 17000 nM |
| CCCC(CCC)N(C(=O)CN1C[C@H](c2ccc3c(c2)OCO3)[C@@H](C(=O)O)[C@@H]1CC(C)(C)CCC)c1ccc(F)c(C)c1 [compound 511] | 0.81 | 99.2 | – | 15000 | IC50 (human ETA receptor; [6]): 0.6 nM |
| CCCCN(CCCC)C(=O)CN1CC(c2ccc3c(c2)OCO3)C(C(=O)O)C1CCc1ccccn1 (stereo not drawn) [compound 519] | – | – | – | 19000 | IC50 [1]: 0.38 nM; IC50 (human ETA receptor; [6]): 0.23 nM; inhibition at 1 µM (ETA Receptor): 99.1%; IC50 [2]: 14000 nM |
| CCCC(CCC)N(C(=O)CN1C[C@H](c2ccc3c(c2)OCO3)[C@@H](C(=O)O)[C@@H]1CCN1CCCC1=O)c1ccc(F)c(C)c1 [compound 521] | 0.67 | 100 | 37000 | – | – |
| CCCCN(CCCC)C(=O)CN1CC(c2ccc3c(c2)OCO3)C(C(=O)O)C1CC(C)CCC (stereo not drawn) [compound 502] | – | – | – | – | IC50 [1]: 3 nM; inhibition at 1 µM (ETA Receptor): 95.7%; IC50 [2]: 71000 nM |
| CCCCN(CCCC)C(=O)CN1CC(c2ccc3c(c2)OCO3)C(C(=O)O)C1CCN1CCCC1=O (stereo not drawn) [compound 512] | – | 98.9 | > 80000 | ≥ 60000 | IC50 [1]: 0.42 nM; IC50 (human ETA receptor; [6]): 0.58 nM |
| CC=CC(C)(C)CC1C(C(=O)O)C(c2ccc3c(c2)OCO3)CN1CC(=O)N(CCCC)CCCC (stereo not drawn) [compound 552] | – | – | – | > 96000 | inhibition at 1 µM ([1]; 1 μM test compound, MMQ cell membranes): 97.3%; IC50 (human ETA receptor): 1 nM |
| CCCCN(CCCC)C(=O)CN1C[C@H](c2ccc3c(c2)OCO3)[C@@H](C(=O)O)[C@@H]1CCN1CCCC1=O [compound 520] | 0.2 | 97.4 | 28000 | – | – |
| CCCC#CCN1CC(c2ccc3c(c2)OCO3)C(C(=O)O)C1c1ccc(OC)cc1 (stereo not drawn) [Example 37, trans,trans-2-(4-Methoxyphenyl)-4-(1,3-benzodioxol-5-yl)-1-(2-hexynyl)-pyrrolidine-3-carboxylic acid] | – | – | – | – | % Inhibition of ETA at 1 μM (ETA Receptor; [4]): 47.9% |
| COc1ccc(C2C(C(=O)O)C(c3ccc4c(c3)OCO4)CN2CC(=O)N2CCc3ccccc3C2)cc1 (stereo not drawn) [Example 296, trans—trans-2-(4-Methoxyphenyl)-4-(1,3-benzodioxol-5-yl)-1-[1,2,3,4-tetrahydroisoquinolin-2-carbonylmethyl]-pyrrolidine-3-carboxylic acid] | – | – | – | – | % Inhibition of ETA at 1 μM (ETA Receptor; [4]): 87.1% |
| CCCCCCCS(=O)(=O)N(CCC)CCN1CC(c2ccc3c(c2)OCO3)C(C(=O)O)C1c1ccc(OC)cc1 (stereo not drawn) [Example 304, trans,trans-2-(4-Methoxyphenyl)-4-(1,3-benzodioxol-5-yl)-1-(2-(N-propyl-N-heptanesulfonylamino)ethyl)-pyrrolidine-3-carboxylic acid] | – | – | – | – | % Inhibition of ETA at 1 μM (ETA Receptor; [4]): 89.7% |
